We go through 1 compound from patent US20110251220A1, “Pharmaceutical compositions comprising gamma secretase modulators” (priority 2008, published 2011).

Each structure is given as a SMILES string.

Series [1] can be described thus: Physiological compatibility, parenteral administration in mice. The settings on record: in vivo, other: parenteral, mouse. The protocol: The compound according to example 1 was tested for its physiological compatibility via parenteral administration in mice. The LD50 (parenteral, mouse) is 800 mg/kg. Accordingly compound 1 can be considered to be physiologically compatible.

Series [2] has as its system LP-1 cells. Briefly: Cell cycle analysis (propidium iodide), sub-G1 fraction, LP-1. In kind it is cell-based, human. The settings on record: LP-1, after 72 h. The procedure: (§1) The compound according to example 1, hereinafter referred to as GSI15, (compound RH02015SC, Maybridge, Acros Organics, Geel, Belgium) was freshly dissolved as 26 mM stock solution in Dimethylsulfoxide (DMSO). Multiple myeloma therapeutics used were melphalan (marketed as Alkeran®, GlaxoSmithKline, Munich, Germany) and bortezomib (marketed as Velcade®, Janssen-Cilag, Neuss, Germany). Melphalan was freshly dissolved at 10 mg/ml in 0.9% NaCl-solution. Bortezomib was freshly dissolved at 100 ng/ml in 0.9% NaCl solution. Gamma Secretase Inhibitor (GSI) treatment for apoptosis assessment by AnnexinV/PI staining, cell cycle analysis and coculture experiments was performed in 6-well plates. GSI15 stock solution was added directly to the cell suspension. GSI treatment for assaying proliferation was performed in 96-well plates. […]
(§2) For cell cycle analysis 2×10^5 cells were spun down, medium was aspirated and cells washed with PBS. […] After 10 minutes incubation in the dark at room temperature, cells were analyzed by flow cytometry. The amount of apoptotic cells was determined by AnnexinV/propidium iodide staining using Human AnnexinV-FITC Kit (Bender Medsystems, Vienna, Austria), according to manufacturer's protocol. […] Cells were then spun down again, resuspended in binding buffer containing PI and analyzed by flow cytometry.

For series [3], the system named is MSC. As to the kind of experiment: Viability assay, MSC. It counts as cell-based, human. The procedure: For assaying proliferation/viability of cells CellTiter-Glo Luminescent Cell Viability Assay (Promega, Mannheim, Germany) was used. In this assay the number of viable cells at a given time point is determined by quantification of ATP present, which serves as a measure of metabolically active cells. The assay was carried out according to manufacturer's protocol. Briefly, cells were plated in 96-well plates at 10,000 cells per well in 100 μl medium and treated with indicated amounts of GSI15, with DMSO as solvent control or left untreated. Each treatment was done in four independent replicates in different wells. 24 h and 48 h after start of treatment 30 μl per well were transferred into an opaque-walled plate and lysed using CellTiter-Glo solution. Luminescence was recorded and integrated for two seconds per well. Average values were calculated and normalized to the respective untreated sample.

For series [4], the system named is U266 cells. Briefly: Proliferation assay (CellTiter-Glo), U266 (Notch1 negative control). It counts as cell-based, human. The settings on record: U266 (lacking Notch1), 48 h treatment. The protocol:
Human MM cell lines used were as follows: NCI-H929, OPM-2, LP-1, RPMI-8226, U266 (DSMZ, Braunschweig, Germany). Cell lines were cultured in RPMI 1640 medium (Biochrom, Berlin, Germany) supplemented with 10% heat-inactivated fetal calf serum (FCS, Gibco, Karlsruhe, Germany), 1 mM sodium pyruvate and 100 units/ml penicillin and 100 μg/ml streptomycin (Gibco). Human osteoclasts were obtained as described in the reference of Zavrski I, Krebbel H, Wildemann B, et al. Proteasome inhibitors abrogate osteoclast differentiation and osteoclast function. Biochem Biophys Res Commun. 2005; 333:200-205. Briefly, peripheral blood mononuclear cells (PBMC) were isolated from whole blood of healthy volunteers, using a Ficoll-Hypaque density gradient. The adherent fraction of the isolated mononuclear cells was cultured for 21 days in MEM medium (Sigma-Aldrich Chemie, Taufkirchen, Germany) supplemented with 10% FCS, 100 U/ml penicillin, 100 μg/ml streptomycin, 50 ng/ml M-CSF, and 25 ng/ml RANKL (osteoclastogenic medium), before coculture experiments and treatment with the inventive compounds started. […]
(§3) For assaying proliferation/viability of cells CellTiter-Glo Luminescent Cell Viability Assay (Promega, Mannheim, Germany) was used. In this assay the number of viable cells at a given time point is determined by quantification of ATP present, which serves as a measure of metabolically active cells. […]
Background: Cellular ATP, detected with luciferase, serves as a proxy for viable cell number.

Series [5] concerns U266 cells. As to the kind of experiment: Cell cycle analysis (propidium iodide), U266. It counts as cell-based, human. The procedure: as §1, §2
Series [6] relates to MM cells. Briefly: Proliferation assay (CellTiter-Glo), concentration of 50% growth inhibition. In kind it is cell-based. The settings on record: Homo sapiens; read-out: Concentration at which 50% cell growth inhibition was observed. The protocol:
Human MM cell lines used were as follows: NCI-H929, OPM-2, LP-1, RPMI-8226, U266 (DSMZ, Braunschweig, Germany). Cell lines were cultured in RPMI 1640 medium (Biochrom, Berlin, Germany) supplemented with 10% heat-inactivated fetal calf serum (FCS, Gibco, Karlsruhe, Germany), 1 mM sodium pyruvate and 100 units/ml penicillin and 100 μg/ml streptomycin (Gibco). Human osteoclasts were obtained as described in the reference of Zavrski I, Krebbel H, Wildemann B, et al. Proteasome inhibitors abrogate osteoclast differentiation and osteoclast function. Biochem Biophys Res Commun. 2005; 333:200-205. Briefly, peripheral blood mononuclear cells (PBMC) were isolated from whole blood of healthy volunteers, using a Ficoll-Hypaque density gradient. The adherent fraction of the isolated mononuclear cells was cultured for 21 days in MEM medium (Sigma-Aldrich Chemie, Taufkirchen, Germany) supplemented with 10% FCS, 100 U/ml penicillin, 100 μg/ml streptomycin, 50 ng/ml M-CSF, and 25 ng/ml RANKL (osteoclastogenic medium), before coculture experiments and treatment with the inventive compounds started. Human osteoblasts were obtained according to Robey P G, Termine J D. Human bone cells in vitro. Calcif Tissue Int. 1985; 37:453-460 as described in Hecht M, Heider U, Kaiser M, von Metzler I, Sterz J, Sezer O. Osteoblasts promote migration and invasion of myeloma cells through upregulation of matrix metalloproteinases, urokinase plasminogen activator, hepatocyte growth factor and activation of p38 MAPK. Br J Haematol. 2007; 138: 446-458. Briefly, trabecular bone specimens from patients without malignant disease undergoing knee or hip surgery were minced and washed to remove bone marrow cells. The bone fragments were resuspended in Dulbecco's modified Eagle's medium (DMEM)/HAM's F12 medium (Biochrom, Berlin, Germany) supplemented with 10% FCS and cultured in tissue culture flasks until a confluent cell monolayer was obtained. Culturing of functional osteoblasts was confirmed by alkaline phosphatase (ALP) staining (kit from Sigma, USA), realtime RT-PCR analysis of expression of osteoblast markers (ALP, osteocalcin) and by von-Kossa staining before coculture and treatment experiments were started.
The compound according to example 1, hereinafter referred to as GSI15, (compound RH02015SC, Maybridge, Acros Organics, Geel, Belgium) was freshly dissolved as 26 mM stock solution in Dimethylsulfoxide (DMSO). Multiple myeloma therapeutics used were melphalan (marketed as Alkeran®, GlaxoSmithKline, Munich, Germany) and bortezomib (marketed as Velcade®, Janssen-Cilag, Neuss, Germany). Melphalan was freshly dissolved at 10 mg/ml in 0.9% NaCl-solution. Bortezomib was freshly dissolved at 100 ng/ml in 0.9% NaCl solution. Gamma Secretase Inhibitor (GSI) treatment for apoptosis assessment by AnnexinV/PI staining, cell cycle analysis and coculture experiments was performed in 6-well plates. GSI15 stock solution was added directly to the cell suspension. GSI treatment for assaying proliferation was performed in 96-well plates. 10,000 cells per well were seeded in 50 μl medium per well before 50 μl of a 2× solution of GSI15 prediluted in medium were added per well. […]
as §3

As usually defined, the LD50 is the dose expected to kill half of the subjects tested.

On to `CC(C)c1ccc(S(=O)(=O)Nc2cccnc2Oc2ccc(Cl)cc2)cc1` [Example 1, N-(2-(4-chlorophenoxy)pyridin-3-yl)-4-isopropylbenzenesulfonamide], for which, in series [1], the median lethal dose (LD50) came out at 800 mg/kg. Also, the sub-G1 fraction result in series [2] is reported as “increase in the sub-G1 fraction”. The viability result in series [3] is “no difference between untreated and GSI15 treated”. The proliferation entry in series [4] is given as “almost not affected”. In addition, the “sub-G1 fraction / cell cycle” value in series [5] was “no change was detected”. In addition, the IC50 in series [6] came to 20 µM.
